Laboratory results taken from article PMC6133092, “Synthesis of 2-alkylthio-N-(quinazolin-2-yl)benzenesulfonamide derivatives: anticancer activity, QSAR studies, and metabolic stability” (Monatshefte Fur Chemie, 2018).

Experiments:
MCF-7 (breast cancer) = test: MTT cell viability assay, MCF-7; type: cell-based, human; details: mean ± SD
Method: All of the newly synthesized compounds 9–24 were evaluated for their effects on cell viability in three human cancer cell lines: HCT-116 (colon cancer), HeLa (cervical cancer), and MCF-7 (breast cancer). Cisplatin was used as reference drug. […] Considering the activity of derivatives 9–12, 15, 17, 18, and 21–24, it can be noticed that phenyl group as R^3 bring an increase of cytotoxicity in comparison with methyl in place of R^3. However, this impact seems to be the most important for compounds with the bulky group in R^1 and generally, it is less for a set of derivatives with methyl group substituted in R^1 (9–12).
(§1) All chemicals, if not stated otherwise, were obtained from Sigma-Aldrich (St. Louis, MO, USA). The MCF-7 and HeLa cell lines were purchased from Cell Lines Services (Eppelheim, Germany), the HCT-116 cell line was purchased from ATCC (ATCC-No: CCL-247). Cells were cultured in Dulbecco’s modified Eagle’s medium (DMEM) supplemented with 10% fetal bovine serum, 2 mM glutamine, 100 units/cm^3 penicillin, and 100 μg/cm^3 streptomycin. Cultures were maintained in a humidified atmosphere with 5% CO2 at 37 °C in an incubator (Heraceus, HeraCell).
(§2) Cell viability was determined using the MTT (3-(4,5-dimethylthiazol-2-yl)-2,5-diphenyltetrazolium bromide) assay. Cells were seeded in 96-well plates at a density of 5 × 10^3 cells/well and treated for 72 h with the examined compounds in the concentration range 1–100 μM (1, 10, 25, 50, and 100 μM). Following treatment, MTT (0.5 mg/cm^3) was added to the medium and cells were further incubated for 2 h at 37 °C. Cells were lysed with DMSO and the absorbance of the formazan solution was measured at 550 nm with a plate reader (Victor, 1420 multilabel counter). […] The experiment was performed in triplicate. Values are expressed as the mean ± SD of at least three independent experiments.

[1] = Metabolic stability in human liver microsomes with NADPH; type: in vitro ADME; details: pooled human liver microsomes, pH 7.4, human liver microsomes 0.5 mg/cm^3, NADPH 1 mM, 10 μM compound, 37 °C, read-out: in vitro metabolic half-life t1/2
Method: Selected derivatives were submitted to metabolic stability study to assess their ability to remain unchanged in the presence of human metabolic enzymes. Human liver microsomes were used as they are a rich source of all common CYP isoenzymes. In vitro incubations were performed in the presence of NADPH as a cofactor and the disappearance of a derivative was followed using LC–MS technique. The in vitro metabolic half-life values are gathered in Fig. 3.
Stock solutions of studied compounds were prepared at concentration of 10 mM in DMSO. […] Incubation mixture contained 10 μM of a studied derivative, 1 mM of NADPH (Sigma-Aldrich) and 0.5 mg/cm^3 of pooled human liver microsomes (HLM, Sigma-Aldrich) in potassium phosphate buffer (0.1 M, pH 7.4). Incubation was carried out in thermostat at 37 °C and started by addition of studied compound. 50 mm^3 samples were taken at starting point and after 5, 15, 30, 45, and 60 min. Enzymatic reaction was terminated by the addition of the equal volume of ice-cold acetonitrile. Incubations were performed in triplicates, the average t1/2 and standard deviation was calculated. Control incubations were performed without NADPH to assess chemical instability. After collection, samples were immediately centrifuged (10 min, 10,000 rpm) and resulted supernatant was directly analyzed or kept in − 80 °C until LC–MS analysis. Natural logarithm of a compound over IS peak area ratio was plotted versus incubation time. Metabolic half-time (t1/2) was calculated from the slope of the linear regression.
LC–MS analysis was performed on an Agilent 1260 system coupled to SingleQuad 6120 mass spectrometer (Agilent Technologies, Santa Clara, CA, USA). Poroshell EC-C18 (2.1 mm × 150 mm, 2.7 μm, Agilent Technologies, Santa Clara, CA, USA) was used in reversed-phase mode with gradient elution starting with 5% of phase A (10 mM ammonium formate in water) and 95% of phase B (10 mM ammonium formate in acetonitrile–water mixture, 95:5 v/v). […] Total analysis time was 15 min at 40 °C, flow rate was 1 cm^3/min and the injection volume was 5 mm^3. The mass spectrometer was equipped with electrospray ion source and operated in positive ionization. Mass analyzer was set individually to each compound to detect [M+H]^+ protonated molecule. MSD parameters of the ESI source were as follows: nebulizer pressure 35 psig (N2), drying gas […] (N2), drying gas temperature 300 °C, capillary voltage 3 kV, fragmentor voltage 150 V.

HeLa (cervical cancer) = test: MTT cell viability assay, HeLa; type: cell-based; details: Homo sapiens
Method: as §1, §2

HOP-92 = test: NCI-60 single dose screen, HOP-92; type: cell-based; details: Homo sapiens, NSCLC, single concentration 10^−5 M, read-out: IGP (inhibition growth percent) HOP-92
Method: (§3) Aside from above, compounds 9–14 and 17–24 were also submitted to National Cancer Institute and evaluated for the cytotoxic effects toward 60 cell lines at a single dose of 10 μM (Table 2). […] As it was summarized in Table 2, leukemia RPMI-8226 and NSCLC A549/ATCC were most sensitive to compounds 18, 22, and 24. These derivatives in 10 μM concentration inhibited the growth of approximately 50% cells belonging to the above mention cell lines.
(§4) Cytotoxicity evaluation of compounds 9–14 and 17–24 was performed at the National Cancer Institute according to NCI-60 DTP human tumor cell line screen procedure.

MCF-7 = test: NCI-60 single dose screen, MCF-7; type: cell-based; details: Homo sapiens, MCF7; Breast cancer; single concentration 10^−5 M; read-out: IGP (inhibition growth percent) MCF-7
Method: as §3, §4

PC-3 = test: NCI-60 single dose screen, PC-3; type: cell-based; details: Homo sapiens, Prostate cancer, single concentration 10^−5 M, read-out: IGP (inhibition growth percent) PC-3
Method: as §3, §4

UO-31 = test: NCI-60 single dose screen, UO-31; type: cell-based; details: Homo sapiens, Renal cancer, single concentration 10^−5 M, read-out: IGP (inhibition growth percent) UO-31
Method: as §3, §4

RPMI-8226 = test: NCI-60 single dose screen, RPMI-8226; type: cell-based; details: Homo sapiens, RPMI-8226, Leukemia; single concentration 10^−5 M; read-out: IGP (inhibition growth percent) RPMI-8226
Method: as §3, §4

SR = test: NCI-60 single dose screen, SR; type: cell-based; details: Homo sapiens, Leukemia, single concentration 10^−5 M, read-out: IGP (inhibition growth percent) SR
Method: as §3, §4

UACC-62 = test: NCI-60 single dose screen, UACC-62; type: cell-based; details: Homo sapiens, Melanoma, single concentration 10^−5 M, read-out: IGP (inhibition growth percent) UACC-62
Method: as §3, §4

NCI-H522 = test: NCI-60 single dose screen, NCI-H522; type: cell-based; details: Homo sapiens, NSCLC, single concentration 10^−5 M, read-out: IGP (inhibition growth percent) NCI-H522
Method: as §3, §4

MOLT-4 = test: NCI-60 single dose screen, MOLT-4; type: cell-based; details: Homo sapiens, Leukemia, single concentration 10^−5 M, read-out: IGP (inhibition growth percent) MOLT-4
Method: as §3, §4

EKVX = test: NCI-60 single dose screen, EKVX; type: cell-based; details: Homo sapiens, NSCLC, single concentration 10^−5 M, read-out: IGP (inhibition growth percent) EKVX
Method: as §3, §4

HCT-116 (colon cancer) = test: MTT cell viability assay, HCT-116; type: cell-based; details: Homo sapiens, 72 h, mean ± SD
Method: as §1, §2

HCT-116 = test: NCI-60 single dose screen, HCT-116; type: cell-based; details: Homo sapiens, Colon cancer, single concentration 10^−5 M, read-out: IGP (inhibition growth percent) HCT-116
Method: as §3, §4

A549/ATCC = test: NCI-60 single dose screen, A549/ATCC; type: cell-based; details: Homo sapiens, A549, NSCLC; single concentration 10^−5 M; read-out: IGP (inhibition growth percent) A549/ATCC
Method: as §3, §4

[2] = Table 4, repeats Table 1 values without SD and unit

N.N.[Cl][Pt][Cl] [Cisplatin, reference compound]
IC50 (MCF-7 (breast cancer); 72 h): 3 ± 0.1 µM

Cc1cc(S(=O)(=O)Nc2nc(C)c3ccccc3n2)c(SCc2ccccc2)cc1Cl [Compound 9, 2-Benzylthio-4-chloro-5-methyl-N-(4-methylquinazolin-2-yl)benzenesulfonamide]
half-life at 10 μM [1]: 51.9 min
IC50 (HeLa (cervical cancer); MTT, 72 h, mean ± SD): 75 ± 5 µM
IC50 (HeLa (cervical cancer); [2]): 75 µM
inhibition at 10 µM (HOP-92): 3%
inhibition at 10 µM (MCF-7): 2%
IC50 (MCF-7 (breast cancer); Homo sapiens, MCF7, 72 h): 100 ± 2 µM
inhibition at 10 µM (PC-3): 2%
inhibition at 10 µM (UO-31): 27%
inhibition at 10 µM (RPMI-8226): 15%
inhibition at 10 µM (SR): 6%
inhibition at 10 µM (UACC-62): 29%
inhibition at 10 µM (NCI-H522): 9%
inhibition at 10 µM (MOLT-4): 12%
inhibition at 10 µM (EKVX): 3%
IC50 (HCT-116 (colon cancer)): 61 ± 1 µM

Cc1cc(S(=O)(=O)Nc2nc(C)c3ccccc3n2)c(SCc2cc3c(cc2Cl)OCO3)cc1Cl [Compound 11, 4-Chloro-2-(6-chlorobenzo[1,3]dioxol-5-ylmethylthio)-5-methyl-N-(4-methylquinazolin-2-yl)benzenesulfonamide]
half-life at 10 μM [1]: 56.8 min
IC50 (HeLa (cervical cancer); MTT, 72 h, mean ± SD): 58 ± 2 µM
IC50 (HeLa (cervical cancer); [2]): 58 µM
inhibition at 10 µM (HCT-116): 30%
inhibition at 10 µM (A549/ATCC): 34%
inhibition at 10 µM (MCF-7): 4%
IC50 (MCF-7 (breast cancer); Homo sapiens, MCF7, 72 h): 57 ± 2 µM
inhibition at 10 µM (PC-3): 23%
inhibition at 10 µM (UO-31): 15%
inhibition at 10 µM (RPMI-8226): 32%
inhibition at 10 µM (SR): 3%
inhibition at 10 µM (UACC-62): 23%
inhibition at 10 µM (NCI-H522): 19%
inhibition at 10 µM (MOLT-4): 20%
inhibition at 10 µM (EKVX): 17%
IC50 (HCT-116 (colon cancer)): 46 ± 1 µM

Cc1cc(S(=O)(=O)Nc2nc(-c3ccccc3)c3ccccc3n2)c(SCC(N)=O)cc1Cl [Compound 14, 2-Carbamoylmethylthio-4-chloro-5-methyl-N-(4-phenylquinazolin-2-yl)benzenesulfonamide]
half-life at 10 μM [1]: 90.8 min
IC50 (HeLa (cervical cancer); MTT, 72 h, mean ± SD): 120 ± 1 µM
IC50 (MCF-7 (breast cancer); Homo sapiens, MCF7, 72 h): 155 ± 9 µM
inhibition at 10 µM (UO-31): 2%
inhibition at 10 µM (SR): 17%
inhibition at 10 µM (NCI-H522): 4%
inhibition at 10 µM (MOLT-4): 9%
IC50 (HCT-116 (colon cancer)): 85 ± 3 µM

Cc1nc(NS(=O)(=O)c2cc(C(=O)Nc3ccc(Cl)cc3)c(Cl)cc2SCC(N)=O)nc2ccccc12 [Compound 19, 2-Carbamoylmethylthio-4-chloro-5-(4-chlorophenylcarbamoyl)-N-(4-methylquinazolin-2-yl)benzenesulfonamide]
IC50 (HeLa (cervical cancer); MTT, 72 h, mean ± SD): 117 ± 5 µM
IC50 (HeLa (cervical cancer); [2]): 117 µM
inhibition at 10 µM (HCT-116): 4%
inhibition at 10 µM (HOP-92): 8%
inhibition at 10 µM (MCF-7): 4%
IC50 (MCF-7 (breast cancer); Homo sapiens, MCF7, 72 h): 105 ± 3 µM
inhibition at 10 µM (PC-3): 4%
inhibition at 10 µM (UO-31): 7%
inhibition at 10 µM (RPMI-8226): 3%
inhibition at 10 µM (SR): 4%
inhibition at 10 µM (NCI-H522): 8%
inhibition at 10 µM (MOLT-4): 3%
IC50 (HCT-116 (colon cancer)): 100 ± 4 µM

NC(=O)CSc1cc(Cl)c(C(=O)Nc2ccc(Cl)cc2)cc1S(=O)(=O)Nc1nc(-c2ccccc2)c2ccccc2n1 [Compound 20, 2-Carbamoylmethylthio-4-chloro-5-(4-chlorophenylcarbamoyl)-N-(4-phenylquinazolin-2-yl)benzenesulfonamide]
half-life at 10 μM [1]: 49.7 min
IC50 (HeLa (cervical cancer); MTT, 72 h, mean ± SD): 110 ± 7 µM
IC50 (HeLa (cervical cancer); [2]): 110 µM
inhibition at 10 µM (HOP-92): 4%
inhibition at 10 µM (MCF-7): 3%
IC50 (MCF-7 (breast cancer); Homo sapiens, MCF7, 72 h): 92 ± 1 µM
inhibition at 10 µM (PC-3): 2%
inhibition at 10 µM (UO-31): 3%
inhibition at 10 µM (RPMI-8226): 10%
inhibition at 10 µM (SR): 6%
inhibition at 10 µM (UACC-62): 8%
inhibition at 10 µM (NCI-H522): 11%
inhibition at 10 µM (MOLT-4): 5%
IC50 (HCT-116 (colon cancer)): 140 ± 4 µM

Cc1ccc(NC(=O)c2cc(S(=O)(=O)Nc3nc(C)c4ccccc4n3)c(SCc3ccccc3)cc2Cl)cc1 [Compound 23, 2-Benzylthio-4-chloro-5-(4-methylphenylcarbamoyl)-N-(4-methylquinazolin-2-yl)benzenesulfonamide]
half-life at 10 μM [1]: 35 min
IC50 (HeLa (cervical cancer); MTT, 72 h, mean ± SD): 75 ± 2 µM
IC50 (HeLa (cervical cancer); [2]): 75 µM
inhibition at 10 µM (A549/ATCC): 6%
inhibition at 10 µM (MCF-7): 8%
IC50 (MCF-7 (breast cancer); Homo sapiens, MCF7, 72 h): 97 ± 2 µM
inhibition at 10 µM (PC-3): 18%
inhibition at 10 µM (UO-31): 21%
inhibition at 10 µM (RPMI-8226): 17%
inhibition at 10 µM (SR): 8%
inhibition at 10 µM (MOLT-4): 5%
inhibition at 10 µM (EKVX): 15%
IC50 (HCT-116 (colon cancer)): 70 ± 1 µM
